These results are taken from ChEMBL document CHEMBL1201862, “PubChem BioAssay data set” (2004).

The source made the active and inactive calls.

Assay [1] in a line: Trypanosoma cruzi growth suppression in host cells – NIH3T3 host cells, beta-gal luminescence, confirmation (AID 2044).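 Further: intracellular parasites grown in NIH/3T3 mouse fibroblasts as host cells; luminescent beta-galactosidase reporter signal from transgenic T. cruzi replicating inside host cells; inhibitors lower the luminescence signal.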 The format is functional, cell-based.
A short description of assay [2]: mammalian cell viability loss – Alamar Blue, dry powder, cytotoxicity control for antifungal single agent project, dose response (AID 602188). The assay is classed as functional, cell-based.
Assay [3] in a line: reduction of Shn3 3'UTR-driven luciferase in osteoblasts – cell-based, Clone20 osteoblasts, firefly luciferase, cherry-picked, dose response (AID 624132).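 Further: firefly luciferase luminescence from reporter carrying the Shn3 3'UTR in osteoblasts.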 The assay is classed as functional.
Assay [4] concerns HEK293. Kind of assay: EBV LMP1 TES2 canonical NF-kB signalling blockers – cell-based, HEK293, luciferase, cherry-pick, dose response (AID 588343). To be noted: Homo sapiens. The assay is classed as functional.
The nature of assay [5]: NIH-3T3 fibroblast cytotoxicity, dose response, cytotoxicity control, cell-based, fluorescence, Alamar Blue, secondary assay (AID 2327).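 Further: NIH-3T3 mouse fibroblasts cultured with fluconazole at 8 µg/mL.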 The assay is classed as functional. Background: Alamar Blue is a resazurin reagent that responds to reducing activity.
The nature of assay [6]: cells. The format is functional, cell-based.
The nature of assay [7]: fluconazole-exposed Candida albicans growth modulators – fluorescence, retest, confirmation (AID 2467). The format is functional, cell-based.
Assay [8] can be described thus: loss of viability in HepG2 cells – cell-based, CellTiter-Glo, cherry-picked, cytotoxicity control for Shn3 inhibitor project, dose response (AID 624134). The format is functional.
For assay [9], the target named is T1, Hexokinase HKDC1 (Homo sapiens, UniProt Q2TB90).
T1 sequence (Q2TB90 whole entry): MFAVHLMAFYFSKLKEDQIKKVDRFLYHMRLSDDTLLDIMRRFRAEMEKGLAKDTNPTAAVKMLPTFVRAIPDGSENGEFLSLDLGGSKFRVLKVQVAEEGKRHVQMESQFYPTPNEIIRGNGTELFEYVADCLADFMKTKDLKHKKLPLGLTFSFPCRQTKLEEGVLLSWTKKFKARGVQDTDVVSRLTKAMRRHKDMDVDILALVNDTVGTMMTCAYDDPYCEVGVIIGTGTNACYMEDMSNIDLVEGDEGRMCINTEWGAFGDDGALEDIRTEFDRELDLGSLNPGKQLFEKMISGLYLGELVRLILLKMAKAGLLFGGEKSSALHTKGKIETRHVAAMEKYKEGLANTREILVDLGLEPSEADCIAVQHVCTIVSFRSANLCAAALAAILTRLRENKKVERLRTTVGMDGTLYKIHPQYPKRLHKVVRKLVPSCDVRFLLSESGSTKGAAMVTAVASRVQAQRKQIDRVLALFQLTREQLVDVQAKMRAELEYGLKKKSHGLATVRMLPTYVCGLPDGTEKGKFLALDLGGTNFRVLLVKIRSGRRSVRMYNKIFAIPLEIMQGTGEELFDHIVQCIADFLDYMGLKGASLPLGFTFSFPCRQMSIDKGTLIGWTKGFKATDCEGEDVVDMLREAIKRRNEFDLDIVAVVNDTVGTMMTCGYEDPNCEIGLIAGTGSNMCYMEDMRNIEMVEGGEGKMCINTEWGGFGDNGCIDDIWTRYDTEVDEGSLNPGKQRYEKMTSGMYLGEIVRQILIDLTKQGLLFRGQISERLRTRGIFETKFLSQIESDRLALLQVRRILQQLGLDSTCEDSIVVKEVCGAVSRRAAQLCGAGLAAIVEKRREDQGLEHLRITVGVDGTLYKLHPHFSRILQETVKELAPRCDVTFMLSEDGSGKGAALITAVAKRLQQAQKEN
As to the kind of experiment: activation of HKDC1 glucose phosphorylation – biochemical, W721R variant, dose response (AID 504730). The assay is classed as functional.

Assay [10] deals with Streptococcus. As to the kind of experiment: GAS UMAA2166 growth inhibition – luminescence, BacTiterGlo, counter-screen for streptokinase expression inhibitor project, dose response (AID 1915).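 Further: potency for reduction of bacterial viability or growth.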 The assay is classed as functional, organism-based.
Assay [11] concerns the target Nonstructural protein 1 (Influenza A virus, UniProt Q194T2). The format is functional, Influenza A virus (A/California/07/2009(H1N1)).
Assay [12] can be described thus: NIH3T3 cell viability loss – ATP luminescence, mouse fibroblasts, counter-screen, dose response (AID 2010).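 Further: cells exposed to compound for about 90 hours before reading.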 The format is functional, cell-based. For orientation: Counterscreens check selectivity or assay interference.
A short description of assay [13]: non-specific 3'UTR reporter inhibition in Clone20-Shn3RL – cell-based, Renilla luciferase, cherry-picked, counter-screen for Shn3 inhibitor project, dose response (AID 624133). The format is functional.
For assay [14], the system named is INS1. As to the kind of experiment: INS-1E survival protection against cytokine death – cell-based, luminescence, retest, dose response (AID 449756).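 Further: cell death triggered by IL-1 beta plus TNF-alpha plus IFN-gamma mixture; protective hits raise ATP signal compared with cytokine alone wells.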 To be noted: Rattus norvegicus. The assay is classed as functional.
Assay [15] has as its target T2, Serine/threonine-protein phosphatase (Candida dubliniensis (strain CD36 / CBS 7987 / NCPF 3949 / NRRLY-17841) (Yeast), UniProt B9W6M3).
T2 sequence (B9W6M3 whole entry): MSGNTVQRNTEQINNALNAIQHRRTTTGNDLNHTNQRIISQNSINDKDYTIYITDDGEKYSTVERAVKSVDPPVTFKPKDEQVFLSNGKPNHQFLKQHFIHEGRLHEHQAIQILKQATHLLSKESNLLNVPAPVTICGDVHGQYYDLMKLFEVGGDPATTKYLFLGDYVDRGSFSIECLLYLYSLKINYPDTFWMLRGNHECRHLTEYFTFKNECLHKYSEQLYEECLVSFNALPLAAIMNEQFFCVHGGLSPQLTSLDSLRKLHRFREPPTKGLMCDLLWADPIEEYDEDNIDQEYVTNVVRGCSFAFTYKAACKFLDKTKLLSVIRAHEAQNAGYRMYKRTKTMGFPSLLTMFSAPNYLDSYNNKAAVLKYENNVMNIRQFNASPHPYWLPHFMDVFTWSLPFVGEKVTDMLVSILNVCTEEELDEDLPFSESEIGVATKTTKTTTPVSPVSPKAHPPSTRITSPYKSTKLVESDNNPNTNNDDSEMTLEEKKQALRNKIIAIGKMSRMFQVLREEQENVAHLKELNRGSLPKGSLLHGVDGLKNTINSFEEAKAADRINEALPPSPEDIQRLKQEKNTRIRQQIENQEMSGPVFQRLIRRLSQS
As to the kind of experiment: blockers of CaCl2-induced CDRE-lacZ signaling – S. cerevisiae, luminescence, secondary, dose response (AID 2388).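 Further: yeast reporter cells carrying a calcineurin-responsive lacZ construct stimulated with calcium chloride; luminescent beta-galactosidase reporter signal in whole cells rather than isolated phosphatase activity; potency for inhibition where a drop in reporter signal means calcineurin blockade.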 The assay is classed as functional, cell-based.

The test system of assay [16] is Streptococcus sp. 'group A'. Kind of assay: Streptococcus pyogenes SK(-)GAS viability under kanamycin – luminescence, BacTiterGlo, confirmation, counter-screen for streptokinase expression inhibitor project, dose response (AID 1900). The assay is classed as functional, organism-based.
Assay [17] in a line: cells. The format is functional, cell-based. The source holds these as a separate data set.
The target of assay [18] is T3, Hexokinase-1 (Homo sapiens, UniProt P19367).
T3 sequence (P19367 whole entry): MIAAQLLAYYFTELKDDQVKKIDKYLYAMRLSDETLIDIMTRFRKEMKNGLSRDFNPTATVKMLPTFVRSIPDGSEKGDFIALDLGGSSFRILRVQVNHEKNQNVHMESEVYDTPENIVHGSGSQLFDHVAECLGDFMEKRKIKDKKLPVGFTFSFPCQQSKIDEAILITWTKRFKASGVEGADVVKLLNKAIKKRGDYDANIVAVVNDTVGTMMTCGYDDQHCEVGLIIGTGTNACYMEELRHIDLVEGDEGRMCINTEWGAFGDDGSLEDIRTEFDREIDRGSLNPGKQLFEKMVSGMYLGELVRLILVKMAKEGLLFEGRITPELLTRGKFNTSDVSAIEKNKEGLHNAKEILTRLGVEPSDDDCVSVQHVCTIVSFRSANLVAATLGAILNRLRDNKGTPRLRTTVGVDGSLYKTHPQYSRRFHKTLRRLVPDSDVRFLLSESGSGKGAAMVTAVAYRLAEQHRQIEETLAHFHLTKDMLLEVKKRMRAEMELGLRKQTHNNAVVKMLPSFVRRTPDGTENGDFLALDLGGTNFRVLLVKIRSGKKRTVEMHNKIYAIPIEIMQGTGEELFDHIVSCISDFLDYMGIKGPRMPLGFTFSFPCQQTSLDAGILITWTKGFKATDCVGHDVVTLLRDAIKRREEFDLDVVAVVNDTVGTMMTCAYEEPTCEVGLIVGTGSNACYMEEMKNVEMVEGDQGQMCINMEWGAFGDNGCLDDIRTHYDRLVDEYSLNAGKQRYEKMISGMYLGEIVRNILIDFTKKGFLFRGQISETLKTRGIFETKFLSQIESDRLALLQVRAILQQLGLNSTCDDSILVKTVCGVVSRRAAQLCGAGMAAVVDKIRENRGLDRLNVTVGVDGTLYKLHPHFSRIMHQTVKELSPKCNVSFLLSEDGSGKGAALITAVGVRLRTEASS
As to the kind of experiment: HK1 enzyme activation by HKDC1 hits – biochemical, selectivity assay for HKDC1 activator project, dose response (AID 504762). The format is functional.

Assay [19] concerns the target ATP-dependent molecular chaperone HSP82 (Candida albicans (strain WO-1) (Yeast), UniProt C4YTQ8). Kind of assay: steroid-induced GRE reporter decrease in yeast – S. cerevisiae, luminescence, Hsp90 inhibitor project, dose response (AID 2400).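 Further: beta-galactosidase luminescence from glucocorticoid response element reporter as proxy for Hsp90 function; inhibitor potency where signal loss means Hsp90 inhibition.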 The format is functional, cell-based.
The subject of assay [20] is H9c2. As to the kind of experiment: cells. To be noted: Rattus norvegicus, H9c2, Myocardium. The assay is classed as functional, cell-based.
Assay [21] concerns the target T4, X-box-binding protein 1 (Homo sapiens, UniProt P17861).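 Further: confirmatory dose-response counter-screen serving a CHOP assay.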
T4 sequence (P17861 whole entry): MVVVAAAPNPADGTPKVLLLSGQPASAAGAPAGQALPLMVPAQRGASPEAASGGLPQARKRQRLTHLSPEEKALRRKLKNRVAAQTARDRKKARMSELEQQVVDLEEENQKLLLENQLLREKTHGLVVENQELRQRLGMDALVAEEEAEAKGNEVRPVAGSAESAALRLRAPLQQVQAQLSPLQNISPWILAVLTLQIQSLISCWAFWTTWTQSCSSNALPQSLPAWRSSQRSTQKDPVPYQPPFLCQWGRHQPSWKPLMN
The assay is classed as functional, Cricetulus griseus.

In assay [22] the target is DNA damage-inducible transcript 3 protein (Mus musculus, UniProt P35639). The assay is classed as functional, Cricetulus griseus.
Sequence of DNA damage-inducible transcript 3 protein (P35639 whole entry): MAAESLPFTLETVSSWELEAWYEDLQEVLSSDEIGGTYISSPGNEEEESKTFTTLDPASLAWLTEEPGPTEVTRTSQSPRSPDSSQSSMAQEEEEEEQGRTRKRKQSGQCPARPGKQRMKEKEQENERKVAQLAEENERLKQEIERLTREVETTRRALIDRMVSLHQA
For assay [23], the target named is T5, Sphingosine 1-phosphate receptor 4 (Homo sapiens, UniProt O95977).
T5 sequence (O95977 whole entry): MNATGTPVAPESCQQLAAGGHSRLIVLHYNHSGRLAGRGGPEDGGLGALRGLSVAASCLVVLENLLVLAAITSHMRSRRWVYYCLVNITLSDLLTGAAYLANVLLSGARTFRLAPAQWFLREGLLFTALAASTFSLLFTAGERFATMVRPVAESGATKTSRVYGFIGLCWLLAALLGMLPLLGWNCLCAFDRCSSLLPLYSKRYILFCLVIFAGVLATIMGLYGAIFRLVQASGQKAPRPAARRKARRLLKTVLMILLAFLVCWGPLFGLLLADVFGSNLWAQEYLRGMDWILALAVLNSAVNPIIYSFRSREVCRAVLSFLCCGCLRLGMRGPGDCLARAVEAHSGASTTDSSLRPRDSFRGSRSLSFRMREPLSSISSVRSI
As to the kind of experiment: Late-stage fluorescence dose response cell-based assay to identify agonists of the Sphingosine 1-Phosphate Receptor 4 (S1P4): purchased compounds EC50. [Related pubchem assays (depositor defined):AID1509, AID1523, AID1563, AID1686, AID1701, AID1801]. The assay is classed as functional.

Sequence of Nonstructural protein 1 (Q194T2 whole entry): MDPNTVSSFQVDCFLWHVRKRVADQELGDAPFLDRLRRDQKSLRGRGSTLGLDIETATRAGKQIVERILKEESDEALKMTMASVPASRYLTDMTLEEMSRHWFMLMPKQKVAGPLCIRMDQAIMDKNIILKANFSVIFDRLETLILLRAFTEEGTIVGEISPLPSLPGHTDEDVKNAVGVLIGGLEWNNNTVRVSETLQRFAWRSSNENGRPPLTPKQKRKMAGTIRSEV
Sequence of ATP-dependent molecular chaperone HSP82 (C4YTQ8 whole entry): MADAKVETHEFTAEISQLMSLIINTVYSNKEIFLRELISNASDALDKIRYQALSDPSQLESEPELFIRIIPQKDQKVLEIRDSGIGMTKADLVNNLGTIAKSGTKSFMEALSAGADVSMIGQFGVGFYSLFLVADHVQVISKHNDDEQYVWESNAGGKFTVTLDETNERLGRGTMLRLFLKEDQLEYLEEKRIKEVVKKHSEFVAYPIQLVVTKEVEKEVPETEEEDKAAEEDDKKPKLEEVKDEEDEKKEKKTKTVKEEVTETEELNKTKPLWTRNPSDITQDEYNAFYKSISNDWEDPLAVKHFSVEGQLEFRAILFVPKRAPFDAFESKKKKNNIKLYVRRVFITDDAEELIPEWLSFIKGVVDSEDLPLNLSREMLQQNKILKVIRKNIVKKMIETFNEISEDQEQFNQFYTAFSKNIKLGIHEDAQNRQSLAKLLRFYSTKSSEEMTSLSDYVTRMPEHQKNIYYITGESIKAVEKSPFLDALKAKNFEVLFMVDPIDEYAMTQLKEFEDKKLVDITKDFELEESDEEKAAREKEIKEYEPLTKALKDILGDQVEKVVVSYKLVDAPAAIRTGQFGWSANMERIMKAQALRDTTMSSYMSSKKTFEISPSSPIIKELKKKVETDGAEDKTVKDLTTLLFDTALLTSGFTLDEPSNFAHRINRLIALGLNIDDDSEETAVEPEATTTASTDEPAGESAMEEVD

Usually EC50 stands for the concentration that produces a half-maximal response. As a reminder, the AC50 is the concentration at which the activity in the assay is half-maximal. As a reminder, the IC50 is the concentration that inhibits the measured activity by half. As for `O=C(NNC(=S)Nc1ccc(Cl)c(Cl)c1)c1ccccn1`, the EC50 in assay [1] is 1.53 µM (active); in [5], 42 µM (inconclusive); in [6] it was 10.5 µM (active); in [7], 0.853 µM (active); in [9] it was 2.2 µM (active); in [10], 3.32 µM (active). Further, the EC50 was 5.02 µM (active) in [12]; > 180 µM (inactive) in assay [15]; 2.3 µM (active) in assay [16]; > 350 µM (not active) in assay [17]; > 80 µM (inactive) in [18]; > 150 µM (inactive) in assay [19]. Also, the AC50 in [2] is 2.98 µM (active); in assay [3] it was 2.33 µM (active); in assay [4], 6.08 µM (active); in assay [8], 3.72 µM (active); in [13], 2.44 µM (active); in [14], 1.06 µM (active). Further, the IC50 in assay [11] was 5.57 µM (active).

Turning to `CCOC(=O)c1c(C)[nH]c(O)c1/C=N/c1ccc(Cl)cc1`, the IC50 in assay [20] was 13.8 µM (active). Besides, the “Absolute IC50 (XBP1)” value in assay [21] stood at 10 µM. In addition, in assay [22], the “Absolute IC50 (CHOP)” value turned out to be 10 µM.

Turning to `Cc1ccc(Cn2nc(C)c(C(=O)OC(C)C(=O)NCc3ccccc3)c2Cl)cc1` (stereo not drawn), the EC50 in assay [23] was > 50 µM (inactive).
